According to PubChem BioAssay AID743267 (Broad Institute, 2014):
Several values for one entry are separate records, joined by “and”; a condition that tells them apart may be missing. Identical values can stand only once.

What follows are compounds tested on human bronchial epithelial cells, CFTR corrector, plate reader (assay: rescue of ΔF508 CFTR function, airway epithelium – human bronchial epithelial cells, plate reader, cherry-pick, two tests, dose response (AID 743267)). Conditions: measured here: test 1 replicate run.

| SMILES | AC50 [µM] |
| --- | --- |
| COc1ccc(S(=O)(=O)Nc2ccc3c(c2)C(=O)N([C@H](C)CO)C[C@@H](C)[C@@H](CN(C)Cc2ccc(Cl)c(Cl)c2)O3)cc1 | 4.82 |
| C[C@@H]1CN([C@H](C)CO)S(=O)(=O)c2ccc(C#CC3CC3)cc2O[C@H]1CN(C)Cc1ccccn1 | 11.8 |
| CCS(=O)(=O)N1CC(=O)N2[C@H](CO)[C@@H](c3ccc(C#CCC(C)C)cc3)[C@@H]2C1 | 0.0676 |
| COc1ccc(NC(=O)N(C)C[C@@H]2Oc3cc(C#CCC(C)C)ccc3S(=O)(=O)N([C@H](C)CO)C[C@@H]2C)cc1 | 16 |

Same assay, conditions: measured here: test 2 replicate run

| SMILES | AC50 |
| --- | --- |
| CC1=Nc2cc(C(=O)NCC3CCCO3)ccc2Sc2ccc(Br)cc21 (stereo not given) | 9.45 µM |
| COc1cc(C(=O)Nc2ccc(C)cc2)c2ccccc2n1 | 1.26 µM |
| COc1cc(/C=N/NC(=O)c2cc(-c3c(C)nn(-c4ccccc4)c3C)n[nH]2)ccc1O | 7.78 µM |
| COc1ccc(Nc2nc(-c3sc(C)nc3C)cs2)c(OC)c1 | 12.3 µM |
| COc1cc(C(=O)Nc2ccc3c(c2)CCN3C(C)=O)cc(OC)c1OC | 3.56 µM |
| COc1ccc(S(=O)(=O)Nc2cc3c(cc2C(C)=O)OCO3)cc1 | 13.9 µM |
| CC(=O)Nc1ccc(NC(=O)COc2cccc3c2OC(C)(C)C3)cc1 | > 50 µM |
| Cc1ccc2c(CN3CCN(S(=O)(=O)c4ccc(Cl)cc4)CC3)cc(=O)oc2c1C | 11.6 µM |
| O=C(N/N=C/c1c(O)ccc2ccccc12)c1ccc(Br)o1 | 6.34 µM |
| COc1cc(NC(=O)c2csc(N)n2)cc(C(=O)Nc2cccc(C(F)(F)F)c2)c1 | 16 µM |
| Cc1ccc(Nc2nc(-c3sc(C)nc3C)cs2)cc1 | 0.812 µM |
| COc1ccc(C2=Nn3c(nnc3-c3ccccc3F)SC2)cc1OC1CCOC1 (stereo not given) | 22.3 µM |
| C=CC(C)(C)c1[nH]cnc1/C=C1\NC(=O)C(C(C)C)NC1=O (stereo not given) | 40.2 µM |
| Cc1nn(C)c(C)c1/C=C/C(=O)O | > 50 µM |
| O=S1(=O)c2ccc(Br)cc2N2CCC[C@H]2CN1Cc1ccccc1 | 1.77 µM |
| Cn1nccc1C(=O)N/N=C/c1c(O)ccc2ccccc12 | 19.2 µM |
| CC1(C)Cc2c(c(-c3ccco3)nc3sc4c(NCCN5CCOCC5)ncnc4c23)CO1 | 3.92 µM |
| Cn1c(=O)c(NC2CCCCC2)c2c3c(cccc31)C(=O)c1ccccc1-2 | 8.48 µM |
| Cc1ccnc2c1ccc1cccnc12 | 18.3 µM |
| COC(=O)c1cn(C(=O)c2ccc(C)cc2C)c2ccccc12 | 7.53 µM |
| CCOc1cc(/C=N/NC(=O)N/N=C/c2ccc(O)c(OCC)c2)ccc1O | 4.92 µM |
| Nc1ccn([C@@H]2O[C@H](CO)[C@@H](O)[C@@H]2O)c(=O)n1 | 0.541 µM |

| SMILES | AC50 |
| --- | --- |
| CC(=O)Nc1ccc2cc3ccc(NC(C)=O)cc3nc2c1 | 18.1 µM |
| NC(=O)N=Nc1c2[nH]c3ccccc3nc-2c2ccccc12 | 8.41 µM |
| Cc1ccc(C(=O)NC(=S)NNC(=O)c2ccccc2O)cc1 | > 50 µM |
| O=Nc1ccc(O)c2ncccc12 | 3.57 µM |
| COc1ccc2c(c1)/C(=C/c1cc(OC)c(OC)c(OC)c1)C(=O)N2 | 2.04 µM |
| Cc1ccc2[nH]c(C(=O)N/N=C/c3ccccc3O)c(C)c2c1 | 1.31 µM |
| O=C(/C=C/c1ccco1)NC(=S)Nc1nc(-c2ccc3ccccc3c2)cs1 | 3.34 µM |
| COc1cc(Nc2c3c(nc4ccccc24)CCC3)cc(OC)c1OC | 1.97 µM |
| Cn1c(CC(=O)NN)c(Sc2ccccc2)c2ccccc21 | > 50 µM |
| CCc1ccc(N2CC(C(=O)Nc3ccccc3N3CCCC3)CC2=O)cc1 (stereo not given) | 28.7 µM |
| Cc1ccc(S(=O)(=O)N2CCOCC2)cc1NC(=O)CSc1n[nH]c(N)n1 | > 50 µM |
| NS(=O)(=O)c1ccc(CNc2ccc3ccccc3n2)cc1 | > 50 µM |
| COc1ccc(C(=O)NCC(c2ccco2)N2CCc3ccccc32)cc1 (stereo not given) | 2.69 µM |
| COc1ccc(NS(=O)(=O)c2cc(NC(=O)Cc3c(F)cccc3Cl)ccc2OC)cc1 | 0.827 µM |
| CC1CCN(C(=O)C2COc3ccccc3O2)CC1 (stereo not given) | 35.1 µM |
| Cn1cccc1/C=C1\SC(=Nc2ccccc2)NC1=O | 2.89 µM |
| COc1ccc(-c2ccc(OC)c(OC)c2OC)cc1 | 3.92 µM |
| O=C1c2cccc(NCCCNCCO)c2C(=O)c2cccc(NCCCNCCO)c21 | 16 µM |
| NS(=O)(=O)c1cc(Cl)c(Cl)c(S(N)(=O)=O)c1 | 0.0468 µM |
| NCC(=O)NNC(=O)OCC1c2ccccc2-c2ccccc21 | 7.38 µM |
| COc1ccccc1C(=O)Nc1ccc2c(c1)nc(CCNC(=O)c1ccco1)n2C | 5.48 µM |
| Cc1cc(/C=N/n2c(COc3ccccc3C)nc3ccccc3c2=O)c(O)c([N+](=O)[O-])c1 | 5.53 µM |

| SMILES | AC50 |
| --- | --- |
| COc1c(O[C@@H]2O[C@H](CO)[C@@H](O)[C@H](O)[C@H]2O)cc2c(c1OC)-c1ccc(SC)c(=O)cc1C(NC(C)=O)CC2 (stereo not given in full) | > 50 µM |
| CCN(CC)c1ccc(/C=N/NC(=O)c2cnccn2)cc1 | 2.12 µM |
| COc1cc(OC)cc(C(=O)N[C@H](C(=O)Nc2nc3ccccc3[nH]2)C(C)C)c1 | 2.34 µM |
| COC(=O)c1ccccc1-c1c2ccc(=N)cc-2oc2cc(N)ccc12 | 0.181 µM |
| CN(C)CCCNc1c2ccccc2nc2ccccc12 | 0.879 µM |
| Cc1ccc2c(C)c3ccc4ccccc4c3c[n+]2c1 | 1.06 µM |
| COc1ccc(Nc2nc3cc(-c4sccc4C)sc3c(=O)n2C)cc1OC | 2.15 µM |
| Cc1cccc(NC(=O)CN2CCN(C(=O)CN3C(=O)NC4(CC(C)CC(C)(C)C4)C3=O)CC2)c1C (stereo not given) | 2.69 µM |
| Cc1ccc(CNC(=O)c2ccc3c(=O)c(O)c(-c4ccc(C)cc4)[nH]c3c2)cc1 | 4.24 µM |
| CC(=O)O[C@H]1C(=O)[C@]2(C)[C@H]([C@H](OC(=O)c3ccccc3)[C@]3(O)C[C@H](OC(=O)[C@H](O)[C@@H](NC(=O)c4ccccc4)c4ccccc4)C(C)=C1C3(C)C)[C@]1(OC(C)=O)CO[C@@H]1C[C@@H]2O | 0.339 µM |
| Cn1cccc1/C=C1\SC(=Nc2cccc(O)c2)NC1=O | 13.5 µM |
| Cc1cccc(NS(=O)(=O)c2ccc(-c3cnc(C4CC4)o3)cc2)c1 | 1.59 µM |
| COc1cccc(/C=N/NC(=O)C(=O)N/N=C/c2cccc(OC)c2O)c1O | 40.1 µM |
| COc1cc(C#Cc2ccc3cc(CCCO)oc(=O)c3c2)cc(OC)c1 | 10.3 µM |
| COC(=O)COc1cccc2c(=O)n(CC(=O)NCc3ccccc3)ccc12 | 5.25 µM |
| CC1=Nc2cc(C(=O)NCC3CCCO3)ccc2Sc2ccc(C)cc21 (stereo not given) | 2.57 µM |
| Cc1ccc(OCCNC(=O)c2cccc(S(=O)(=O)NCc3ccccc3)c2)cc1 | 1.64 µM |
| O=C(CN1C(=O)NC2(CCCCCCC2)C1=O)Nc1ccc(Br)cc1 | 1.13 µM |
| COc1ccc(OC)c(-c2cnc(OC(C)(C)C)nc2OC(C)(C)C)c1 | 13.9 µM |
| Oc1cccc(/C=N/Nc2ccc(Cl)nn2)c1O | 16 µM |
| NS(=O)(=O)c1cc(C2(O)NC(=O)c3ccccc32)ccc1Cl (stereo not given) | > 50 µM |
| CC1CN(S(=O)(=O)c2cccc(C(=O)Nc3cc(Cl)ccc3N3CCOCC3)c2)CC(C)O1 (stereo not given) | > 50 µM |

| SMILES | AC50 |
| --- | --- |
| O=C1NC(=Nc2ccc(O)cc2)S/C1=C/c1ccco1 | 4.91 µM |
| CCc1c(C)nc2ncnn2c1NCCc1ccc(OC)cc1 | 34.6 µM |
| Fc1ccccc1/C=N/NC(=S)Nc1ccc(Cl)cc1Cl | 1.62 µM |
| COc1ccc(/C=N/NC(=O)c2cccnc2)cc1CSc1ccccn1 | 28.2 µM |
| CCN(CC)C1=CC2=CC(=C(C#N)C#N)CCC2CC1 (stereo not given) | 0.948 µM |
| COc1cc(SC)ccc1C(=O)N1CCN(c2ccccc2OC)CC1 | 6.62 µM |
| Cc1ccc(-c2cccc(CN3CCN(C(C)C)C(CCO)C3)c2)o1 (stereo not given) | > 50 µM |
| COc1cc2c(cc1OC)C(C)N(C(=O)Nc1cc(C)cc(C)c1)CC2 (stereo not given) | 3.03 µM |
| COc1ccc(OC)c(-c2cc(-c3cccnc3)nc(N)c2C#N)c1 | 2.43 µM |
| COc1ccccc1C(=O)NC(=S)/C=C1/N(C)c2ccccc2C1(C)C | > 50 µM |
| COc1ccc(OC)c(Nc2cc(C)nc3ccc(C)cc23)c1 | 10.7 µM |
| CN(Cc1ccco1)c1ncnc2ccc(-c3ccc4c(ccn4C)c3)cc12 | 1.77 µM |
| CCN(CC)c1ccc(/C=C(/C#N)c2nc3ccc(C)cc3[nH]2)c(OC(C)C)c1 | 9.34 µM |
| COc1ccc(-c2cc(=O)c3c(O)cc(O)cc3o2)cc1 | > 50 µM |
| O=c1c2ccccc2sc2c(CO)ccc(NCCN3CCCCC3)c12 | 5.18 µM |
| C[n+]1c2cc(N)ccc2cc2ccc(N)cc21 | 3.52 µM and 2.96 µM |
| C=CCN=c1scc(C)n1/N=C/c1ccc(O)c(O)c1 | > 50 µM |
| Cc1cc(C(=O)N/N=C/c2ccc3c(c2)OCO3)c2ccccc2n1 | 3.76 µM |
| Clc1ccc2c(c1)-c1ccccc1C1=NCCN12 | 2.72 µM |
| CN(C)CCNC(=O)c1ccc(Cl)c2cc3ccccc3nc12 | 5.35 µM |
| COc1cccc(-c2cnc3c(NC(C)=O)cc(-c4cc(F)ccc4OC)cn23)c1 | 11.9 µM |
| COC(=O)c1ccc(C(=O)NC2CCCc3c2cnn3-c2cc(F)cc(F)c2)nc1 (stereo not given) | 8.13 µM |

| SMILES | AC50 |
| --- | --- |
| CCN(CC)CCn1c2ccccc2c2nc3ccccc3nc21 | 11.3 µM |
| COCCNc1nc(Nc2ccc(C)cc2C)c2sccc2n1 | 2.34 µM |
| O=C(NCCC1CCCCN1S(=O)(=O)c1cccs1)C(=O)Nc1ccc(F)cc1F (stereo not given) | 8.39 µM |
| CCN(CC)CCn1nc2c3c(cccc3c1=O)-c1ccccc1-2 | 1.1 µM |
| O=C(OCc1ccc(Br)cc1)c1cc([N+](=O)[O-])ccc1N1CCOCC1 | 0.662 µM |
| COc1ccccc1N=C1SC(C(=O)Nc2cccc(Cl)c2Cl)C(N)=C1C(N)=O (stereo not given) | 6.08 µM |
| COc1ccc(O)c(/C=N/NC(=O)c2ccc(N3CCCC3=O)cc2)c1 | 8.14 µM |
| O=c1c2ccccc2oc2cc(-c3ccc4[nH]ccc4c3)ccc12 | 1.94 µM |
| CCOC(=O)CSC1=C(C#N)C(c2ccc(C)s2)CC(=O)N1 (stereo not given) | 5.6 µM |
| COc1cc(OC)c(-c2c3cc(O)c(=O)cc-3oc3cc(O)c(O)cc23)cc1OC | 8.08 µM |
| COc1ccccc1NC(=O)C(=O)NCC(c1ccco1)N1CCc2ccccc21 (stereo not given) | > 50 µM |
| CCOC(=O)c1[nH]c(C)c(/C(O)=C2\C(=O)C(=O)N(CCCN3CCOCC3)C2c2cccs2)c1C (stereo not given) | 19.4 µM |
| O=C(N/N=C/c1ccccc1OC(F)F)c1cc(-c2ccncc2)nc2ccccc12 | 0.798 µM |
| COC(=O)c1ccc(S(=O)(=O)N2CCc3ccccc32)cc1 | 19.1 µM |
| Cc1cccc(N2CCN(C(=O)c3ccc4[nH]c(C)c(C)c4c3)CC2)c1C | 1.85 µM |
| CCN(CC)C(=O)c1oc2ccc(S(=O)(=O)N3CC(C)CC(C)C3)cc2c1C (stereo not given) | 10.5 µM |
| COC(=O)/C=C/c1ccccc1S(=O)(=O)N(Cc1ccccc1)Cc1ccco1 | 3.04 µM |
| CC(=Nc1ccccc1O)c1sc2ccccc2c1O | 11.8 µM |
